Source: publication PMC12586598, “A novel long-acting C5a-blocking cyclic peptide prevents sepsis-induced organ dysfunction via effective blockade of the inflammatory cascade” (Signal Transduction and Targeted Therapy, 2025)
Where a SMILES comes first, the peptide text is derived from it.

Legend:
[1] = mouse, 24 h
Description: (§2) The peptides in the plasma were extracted with 15% TFA and quantified via reversed-phase high-performance liquid chromatography (HPLC) (Agilent 1260, USA).

[2] = system: human peripheral blood mononuclear cells (PBMCs); assay: RNA sequencing of C5a-stimulated PBMCs; assay type: cell-based; details: |log2FoldChange| ≥ 1, P < 0.05
Description: Human peripheral mononuclear cells were stimulated with 100 ng/mL of human C5a protein (MCE, China) or a complex of human C5a with Cp1 for 1 h. After RNA extraction, purification and library construction, the Next-Generation Sequencing (NGS) technology was used to perform paire-end (PE) sequencing based on Illumina sequencing platform in Bioprofile Biotechnology Co., Ltd (Shanghai, China). The expression of each gene was calculated and further subjected to differential expression analysis, enrichment analysis and cluster analysis.

[3] = biological target: T1, Cy5-labeled mouse C5a protein (Mus musculus, UniProt P06684); assay: Competitive binding assay by FCM (Cy5-C5a on mouse neutrophils); assay type: cell-based; details: high (1 μg/mL) or low (10 ng/mL) concentrations
T1 construct: 10 ng of Cy5-labeled mouse C5a protein (MCE, Shanghai, China); purchased MCE; host or cells: mouse peripheral blood neutrophils (endogenous receptor)
T1 sequence (P06684 679-755): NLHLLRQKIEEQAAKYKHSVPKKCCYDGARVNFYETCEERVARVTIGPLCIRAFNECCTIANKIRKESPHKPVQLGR
Description: For the validation of peptide affinity for C5a. Peripheral blood neutrophils from the mice were isolated via density gradient centrifugation (Solarbio P9201, Beijing, China). A total of 10 ng of Cy5-labeled mouse C5a protein (MCE, Shanghai, China) was preincubated with linear peptides or cyclic peptides (10 or 100 ng) at room temperature for 0.5 h. Subsequently, 2×10^5 mouse neutrophils were incubated with Cy5-labeled mouse C5a or Cy5-labeled mouse C5a/peptide complexes at 4 °C for 0.5 h in the dark, followed by centrifugation, washing with PBS and flow cytometric analysis (Sony ID7000™, Japan).

CLP-induced septic mice [4] = assay: Organ function, coagulation and lung histology in CLP mice; assay type: in vivo, mouse; details: 24 h post-CLP surgery
Description: (§1) The cecal ligation and puncture (CLP) model was established in male C57BL/6 mice (9-10 weeks old). Briefly, a midline laparotomy was performed to exteriorize the cecum under general anesthesia. The cecum was ligated at the distal three-quarters using sutures. Subsequently, a single through-and-through puncture was made in the ligated segment using a 22-gaμge needle, followed by small volume of fecal content was gentle extrusion. The cecum was then repositioned within abdominal cavity, and the laparotomy incision was closed in layers. All animals were administered 1 mL of sterile saline for postoperative fluid resuscitation. Sham-operated controls underwent identical surgical procedures without cecal ligation or puncture. In this work, mice received administration via intravenous injection 1 hour after CLP surgery. The animal mortality was determined by the presence of confirmed death. […] Blood samples were collected 24 hours after CLP-modeling for hematological analysis (Mindray BC-60R Vet) and biochemical analysis (Mindray BS-240 Vet, China), endothelial injury analysis (Njjcbio, Nanjing) and coagulation analysis (Legene, Beijing). Subsequently, mice were sacrificed to collect the main organs for morphological and pathological analysis.

CLP-induced septic mice [5] = assay: Bacterial burden in blood (CFU) of CLP mice; assay type: in vivo, mouse
Description: Whole blood samples were aseptically dropped onto nutrient agar plates. Glass beads were added, and the samples were rocked horizontally to ensure the uniform distribution of blood samples. The inoculated plates were incubated at 37 °C for 24 h, after which colony-forming units (CFUs) were counted. The colonies on the culture plates were counted via ProtoCOL 3 HD (Synbiosis, UK).

mouse C5a = biological target: T2, mouse C5a (Mus musculus, UniProt P06684); assay: SPR binding affinity assay, immobilized mouse C5a; parameters: immobilization of mouse C5a (ACROBiosystems, Beijing, China); purchased ACROBiosystems
T2 sequence (P06684 679-755 limits assumed): T1 sequence (P06684 679-755)
Description: Surface plasmon resonance (SPR) analysis was conducted using Biacore 2000 system (GE Healthcare, Germany) at 37°C in running buffer (20 mM Tris-HCl, pH 7.4, 150 mM NaCl, 5 mM KCl, 1 mM MgCl₂, 1 mM CaCl₂). The CM5 sensor chips (GE Healthcare) were activated with NHS/EDC, followed by immobilization of mouse C5a (ACROBiosystems, Beijing, China), human C5a (ACROBiosystems, Beijing, China), mouse C5 (ACROBiosystems, Beijing, China) or mouse C5a-desArg (MCE, Shanghai, China). The peptide-protein interactions were characterized using a concentration-gradient approach (low to high) with a continuous flow rate of 30 μL/min (150 s injection duration). Between analyte concentrations, the sensor surface was regenerated with 10 mM glycine-HCl (pH 2.0; 5 min treatment). Binding and dissociation constants were obtained by globally fitting the data to a 1:1 Langmuir binding model using a Biacore Insight evaluation software (Cytiva, USA).

PMNs = assay: Neutrophil phagocytosis (BioParticles and live bacteria), flow cytometry; assay type: cell-based, human; details: 6 h hC5a stimulation; E. coli and S. aureus BioParticles and live bacteria
Description: To assess the phagocytic function of neutrophils, PMNs were stimulated with hC5a or hC5a/Cp1 complexes for 6 h, followed by incubation with 20 μL of Red E. coli BioParticles™ or Green S. aureus BioParticles™ (Invitrogen, USA) at 37 °C for 0.5 h in the dark.[44] After being washed with precooled PBS and centrifuged (40 × g, 5 min), the samples were subjected to flow cytometric quantification for phagocytosis analysis. For the live bacterial phagocytosis assay, 2 × 10^5 PMNs were prestimulated with 100 ng of hC5a or hC5a/Cp1 complexes for 6 h. The PMNs were incubated with DMAO-labeled E. coli (ATCC 25922) or S. aureus (ATCC 29213) at an MOI (multiplicity of infection) of 10 for 0.5 h at 37 °C in the dark, followed by pretreatment with precooled gentamicin (50 μg/mL). The intracellular fluorescence intensity of PMNs was quantified via flow cytometry.

in vitro = details: C57BL/6, mouse, plasma
Description: as §2

CLP-induced septic mice [6] = assay: Kaplan-Meier survival of CLP model mice; assay type: in vivo, mouse
Description: as §1

With `CSCC[C@@H]1NC(=O)[C@@H]2CCCN2C(=O)[C@H](CCSC)NC(=O)[C@H](CO)NC(=O)[C@H](Cc2c[nH]cn2)NC(=O)CNC(=O)[C@H](CO)NC(=O)[C@H](Cc2ccccc2)NC(=O)[C@H](CCCNC(=N)N)NC(=O)[C@H](CCC(=O)O)NC(=O)[C@H](Cc2ccccc2)NC(=O)[C@H](C(C)C)NC1=O` [Cp1] (cyclo(HSMPMVFERFSG)) the “stability in normal plasma” value [1] was “comparable stabilities”, the “DEGs downregulated after Cp1 preincubation” value [2] was 2235 and the “blockade of Cy5-C5a binding to mouse neutrophils” value [3] was “validated the blocking efficacy”. The “LDH and LAC levels” value (CLP-induced septic mice [4]; 100 μg/20 g) was “marked reduction”, the “coagulation function parameters (PT, APTT, TT, Fbg)” value (CLP-induced septic mice [4]; 100 μg/20 g) was “attenuated the sepsis-induced changes in the clotting and fibrinolytic systems” and the “serum ALT and AST levels (liver function)” value (CLP-induced septic mice [4]; 100 μg/20 g) was “effectively mitigated the increase”. For the same molecule, the “serum UREA and CREA levels (kidney injury)” value (CLP-induced septic mice [4]; 100 μg/20 g, vs untreated CLP mice) was “significantly lower”, the “lung injury, H&E pathological sections” value (CLP-induced septic mice [4]) was “significantly ameliorated sepsis-induced pulmonary vascular leakage” and the “reduction of bacterial burden (CFUs/mL in blood) vs CLP” value (CLP-induced septic mice [5]; 100 μg Cp1, 24 h post-CLP) was 93%. The “reduction of bacterial burden (CFUs/mL in blood) vs CLP” value (CLP-induced septic mice [5]; 300 μg Cp1, 24 h post-CLP) was 86%, the kon (mouse C5a; pH 7.4, read-out: Ka vs mC5a (SPR)) was 63800 M⁻¹ s⁻¹ and the koff (mouse C5a; read-out: Kd (dissociation rate) vs mC5a (SPR)) was 0.359 s⁻¹. The “effect on C5a-induced phagocytic impairment in PMNs” value (PMNs) was “effectively mitigated C5a-induced phagocytic impairment”, the remaining at 24 h (in vitro) was over 95% and the “improvement in the median survival time vs untreated CLP group” value (CLP-induced septic mice [6]; mouse, in vivo) was 300%. The 7-day survival rate (CLP-induced septic mice [6]; single administration 100 μg/20 g, n = 10) was 60%.
